The text below walks through data of ChEMBL document CHEMBL1201862, “PubChem BioAssay data set” (2004).

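Five concentrations, 48 hours, 96-well plates. Abbreviation: GI50, concentration required for 50% inhibition of growth.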 Active and inactive are the calls of the source. No stated cut-off is given here; in the data, active = GI50 up to about 1.1 µM and inactive = higher.

Some test systems named below: U-251; PC-3; OVCAR-5; BT-549; SN12C; OVCAR-8; RPMI-8226; HCC 2998; MCF7; IGROV-1; Malme-3M; HOP-62; NCI/ADR-RES; MDA-MB-435; HCT-116; K562; KM12; MDA-N; SK-MEL-5; UACC-257.
What all share (assay): inhibition of tumour cell growth, NCI panel, 48 h

As to `CC[C@H]1OC([C@H](O)C/C=C\C#C[Si](C)(C)C)C/C=C\C[C@H]1O[Si](C)(C)C(C)(C)C` (stereo not given in full), the GI50 with U-251, in the assay on PC-3, in the assay on OVCAR-5, with BT-549, in the assay on SN12C and with OVCAR-8 was > 100 µM (inactive) in each case. For the same molecule, the GI50 in the assay with RPMI-8226 is 37.8 µM (inactive); with HCC 2998 it was > 100 µM (inactive); with MCF7, 51.4 µM (inactive); in the assay with IGROV-1 it was > 100 µM (inactive); with Malme-3M, > 100 µM (inactive); in the assay on HOP-62, > 100 µM (inactive). The GI50 with NCI/ADR-RES, in the assay with MDA-MB-435, with HCT-116, with K562, in the assay with KM12 and in the assay on MDA-N was > 100 µM (inactive) each time. The GI50 with SK-MEL-5 is > 100 µM (inactive).

In the case of `N#C[C@@H](c1ccccn1)c1ncccc1[N+](=O)[O-]`, the GI50 in the assay on U-251, in the assay on PC-3, in the assay with OVCAR-5, in the assay on BT-549, in the assay with SN12C and with OVCAR-8 was > 100 µM (inactive) in each case. The GI50 with RPMI-8226 is > 100 µM (inactive); in the assay with HCC 2998, > 100 µM (inactive); in the assay with MCF7 it was 74 µM (inactive); in the assay on IGROV-1, > 100 µM (inactive); in the assay on Malme-3M, > 100 µM (inactive); in the assay on HOP-62, > 100 µM (inactive). In addition, the GI50 in the assay on NCI/ADR-RES is > 100 µM (inactive); in the assay with MDA-MB-435 it was > 100 µM (inactive); in the assay with HCT-116 it was > 100 µM (inactive); in the assay with K562, > 100 µM (inactive); in the assay on MDA-N, > 100 µM (inactive); with SK-MEL-5, 90.2 µM (inactive).

`Sc1ncc(-c2cncc(-c3cnc(S)nc3)n2)cn1`: the GI50 in the assay with U-251, in the assay on PC-3, in the assay with OVCAR-5, with BT-549, in the assay with SN12C and in the assay with OVCAR-8 was > 100 µM (inactive) each time. Besides, the GI50 with RPMI-8226, in the assay with UACC-257, in the assay on HCC 2998, in the assay on MCF7, with IGROV-1 and in the assay on Malme-3M was > 100 µM (inactive) throughout. In addition, the GI50 in the assay on NCI/ADR-RES, with MDA-MB-435, in the assay on HCT-116, in the assay on K562, in the assay on KM12 and in the assay with MDA-N was > 100 µM (inactive) in each case. Besides, the GI50 in the assay on SK-MEL-5 is > 100 µM (inactive).

As to `O=c1c2ccccc2[nH]c2c(Cl)cc(Cl)c(NC3CCCCC3)c12`, the GI50 in the assay with U-251 was 16.7 µM (inactive); in the assay with PC-3, 22.8 µM (inactive); in the assay on OVCAR-5, 20.1 µM (inactive); in the assay on BT-549, 27.5 µM (inactive); with SN12C it was 24.4 µM (inactive); with OVCAR-8, 20.7 µM (inactive). Also, the GI50 in the assay with RPMI-8226 is 28.3 µM (inactive); in the assay with UACC-257 it was 23.6 µM (inactive); in the assay on HCC 2998, 25.1 µM (inactive); in the assay on MCF7, 18.7 µM (inactive); with IGROV-1, 18.2 µM (inactive); with HOP-62 it was 20.7 µM (inactive). For the same molecule, the GI50 with NCI/ADR-RES is 18.5 µM (inactive); in the assay on MDA-MB-435 it was 16.9 µM (inactive); in the assay with HCT-116, 38.5 µM (inactive); with K562 it was 22.4 µM (inactive); in the assay on KM12, 14.8 µM (inactive); with MDA-N, 33.3 µM (inactive). Besides, in the assay on SK-MEL-5, the GI50 is 36.3 µM (inactive).

On to `CCCCC1Nc2ccccc2-c2ccnc(Cl)c21` (stereo not given), for which the GI50 in the assay with U-251 was 21.4 µM (inactive); in the assay with PC-3, 25.8 µM (inactive); in the assay with BT-549, 18 µM (inactive); in the assay on SN12C, 20.8 µM (inactive); in the assay with RPMI-8226, 12.2 µM (inactive); in the assay on UACC-257, 20 µM (inactive). For the same molecule, the GI50 in the assay with HCC 2998 is 38.7 µM (inactive); in the assay on MCF7, 35 µM (inactive); in the assay with IGROV-1, 19 µM (inactive); in the assay on Malme-3M it was 20.8 µM (inactive); in the assay with HOP-62 it was 19.3 µM (inactive); with NCI/ADR-RES it was 27.7 µM (inactive). The GI50 in the assay with MDA-MB-435 was 16.1 µM (inactive); in the assay on HCT-116 it was 15.7 µM (inactive); in the assay with K562, 20.9 µM (inactive); in the assay on KM12 it was 20.7 µM (inactive); in the assay on MDA-N, 15.6 µM (inactive); with SK-MEL-5 it was 15.2 µM (inactive).

Regarding `Cn1c2ccccc2c(=O)c2c(O)cc3c(c21)C=CC1(CCCCC1)O3`, the GI50 in the assay with U-251 is > 10 µM (inactive); with PC-3, > 10 µM (inactive); with OVCAR-5 it was 7.18 µM (inactive); with BT-549, 2.08 µM (inactive); in the assay with SN12C it was > 10 µM (inactive); in the assay with OVCAR-8, > 10 µM (inactive). Besides, the GI50 with RPMI-8226 is > 10 µM (inactive); in the assay with UACC-257, > 10 µM (inactive); in the assay with HCC 2998, > 10 µM (inactive); in the assay with MCF7, 9.1 µM (inactive); in the assay with IGROV-1 it was > 10 µM (inactive); with Malme-3M, > 10 µM (inactive). For the same molecule, the GI50 was > 10 µM (inactive) in the assay with HOP-62; > 10 µM (inactive) in the assay with NCI/ADR-RES; > 10 µM (inactive) in the assay on MDA-MB-435; > 10 µM (inactive) in the assay on HCT-116; 4.5 µM (inactive) in the assay with K562; 1.62 µM (inactive) in the assay with KM12. Further, the GI50 in the assay on MDA-N and with SK-MEL-5 was > 10 µM (inactive) each time.

Take `COc1cc(CC(C)=O)cc(OC)c1`: the GI50 in the assay with U-251 is 63.5 µM (inactive); with PC-3 it was 11.3 µM (inactive); in the assay on OVCAR-5, > 100 µM (inactive); in the assay on BT-549, 52.5 µM (inactive); in the assay on SN12C it was 46.8 µM (inactive); in the assay on OVCAR-8 it was > 100 µM (inactive). Also, the GI50 in the assay on RPMI-8226 is 27.8 µM (inactive); in the assay on UACC-257, > 100 µM (inactive); in the assay on HCC 2998 it was > 100 µM (inactive); in the assay with MCF7 it was 34.2 µM (inactive); in the assay on IGROV-1, 74.1 µM (inactive); in the assay with Malme-3M, 51.2 µM (inactive). Also, the GI50 in the assay on HOP-62 was > 100 µM (inactive); with NCI/ADR-RES, 52.4 µM (inactive); in the assay on MDA-MB-435, 41 µM (inactive); with HCT-116, 50.6 µM (inactive); with K562, 33.3 µM (inactive); in the assay on MDA-N it was 27.4 µM (inactive). In the assay with SK-MEL-5, the GI50 is 91.2 µM (inactive).

`COC(=O)C1CC2CCC1(O[Si](C(C)C)(C(C)C)C(C)C)C(O)C2` (stereo not given): the GI50 was 16.5 µM (inactive) with U-251; 20.7 µM (inactive) in the assay with PC-3; 14.2 µM (inactive) with OVCAR-5; 26.9 µM (inactive) with BT-549; 17.9 µM (inactive) in the assay on SN12C; 14.9 µM (inactive) with OVCAR-8. Moreover, the GI50 in the assay with RPMI-8226 was 17.5 µM (inactive); with HCC 2998 it was 21.8 µM (inactive); in the assay with MCF7, 14.9 µM (inactive); in the assay with IGROV-1, 25.8 µM (inactive); in the assay on Malme-3M it was 54.2 µM (inactive); in the assay on HOP-62, 18.4 µM (inactive). The GI50 is 31.8 µM (inactive) with NCI/ADR-RES; 16.2 µM (inactive) in the assay with MDA-MB-435; 18.2 µM (inactive) in the assay on HCT-116; 12.4 µM (inactive) in the assay on K562; 17.6 µM (inactive) in the assay on KM12; 22 µM (inactive) in the assay on MDA-N. In the assay on SK-MEL-5, the GI50 was 23.1 µM (inactive).

Regarding `CC(C)SC1SCC2C(=O)N(C)C3(CC3C)C(=O)OCC(NC(=O)c3nc4ccccc4cc3O)C(=O)NC(C)C(=O)N(C)C1C(=O)N(C)C1(CC1C)C(=O)OCC(NC(=O)c1nc3ccccc3cc1O)C(=O)NC(C)C(=O)N2C` (stereo not given), the GI50 was < 0.0001 µM (active) with U-251; < 0.0001 µM (active) in the assay on PC-3; < 0.0001 µM (active) in the assay on OVCAR-5; 0.01 µM (active) with BT-549; < 0.0001 µM (active) in the assay on SN12C; < 0.0001 µM (active) with OVCAR-8. In addition, the GI50 with RPMI-8226, with UACC-257, with HCC 2998, with MCF7, in the assay with IGROV-1 and in the assay with Malme-3M was < 0.0001 µM (active) in each case. The GI50 was < 0.0001 µM (active) in the assay on HOP-62; 0.00446 µM (active) with NCI/ADR-RES; < 0.0001 µM (active) with MDA-MB-435; < 0.0001 µM (active) in the assay with HCT-116; < 0.0001 µM (active) with K562; < 0.0001 µM (active) with KM12. Further, the GI50 with MDA-N and in the assay on SK-MEL-5 was < 0.0001 µM (active) in each case.

For the molecule `O=C1CCCC/C1=C\c1ccc([N+](=O)[O-])cc1`, the GI50 with U-251 was 16.1 µM (inactive); with PC-3, 2.03 µM (inactive); with OVCAR-5, 54.2 µM (inactive); in the assay on BT-549, 23.3 µM (inactive); with SN12C, 13.5 µM (inactive); in the assay with OVCAR-8, 19.4 µM (inactive). Besides, the GI50 in the assay with RPMI-8226 was 7.57 µM (inactive); with UACC-257, 15.5 µM (inactive); with HCC 2998, 12.3 µM (inactive); with MCF7, 18.5 µM (inactive); with IGROV-1, 17.1 µM (inactive); in the assay with HOP-62 it was 11.5 µM (inactive). Also, the GI50 was 19.5 µM (inactive) in the assay with NCI/ADR-RES; > 10 µM (inactive) in the assay with MDA-MB-435; 12.4 µM (inactive) in the assay on HCT-116; 2.82 µM (inactive) with K562; 18.3 µM (inactive) in the assay with KM12; 17.8 µM (inactive) in the assay with MDA-N. Also, the GI50 in the assay with SK-MEL-5 is 27.2 µM (inactive).
